Laboratory results: PubChem BioAssay AID1745844 (Carcinogenic Potency Database (CPDB), 2022)

Tested on: rodent lifetime carcinogenesis bioassay, tumor incidence TD50
Experiment: chronic cancer bioassays in animals – CPDB, compiled studies (AID 1745844)
Conditions: rat, strain Fischer 344, in drinking water, study length 97 weeks

## COc1cc(-c2ccc(N=Nc3c(S(=O)(=O)O)cc4cc(S(=O)(=O)O)cc(N)c4c3O)c(OC)c2)ccc1N=Nc1c(S(=O)(=O)O)cc2cc(S(=O)(=O)O)cc(N)c2c1O
females, site: Zymbal's gland, lesion: adenoma + carcinoma, dosed 96 weeks
  TD50: 104 mg/kg/day
females, site: Zymbal's gland, lesion: adenoma, dosed 96 weeks
  TD50: 321 mg/kg/day
females, site: Zymbal's gland, lesion: carcinoma, dosed 96 weeks
  TD50: 150 mg/kg/day
females, site: any site (literature study), lesion: several types, types named in the paper, dosed 96 weeks
  TD50: 20.4 mg/kg/day
females, site: clitoral gland, lesion: adenoma + adenoma, bilateral + carcinoma + carcinoma, bilateral, dosed 96 weeks
  TD50: 46.2 mg/kg/day
females, site: clitoral gland, lesion: adenoma + adenoma, bilateral, dosed 96 weeks
  TD50: 90.1 mg/kg/day
females, site: clitoral gland, lesion: carcinoma + carcinoma, bilateral, dosed 96 weeks
  TD50: 107 mg/kg/day
females, site: colon, ascending + clitoral gland + colon + colon, descending + duodenum + jejunum + liver + multiple organs + palate + skin + tongue + uterus, lesion: adenomatous polyp + adenoma + adenoma, bilateral + carcinoma + carcinoma, bilateral + mucinous cystadenocarcinoma + adenocarcinoma + h, dosed 96 weeks
  TD50: 21.3 mg/kg/day
females, site: colon, ascending + colon + colon, descending, lesion: adenomatous polyp, dosed 96 weeks
  TD50: 491 mg/kg/day
females, site: duodenum + jejunum, lesion: mucinous cystadenocarcinoma + adenocarcinoma, dosed 96 weeks
  TD50: 997 mg/kg/day
females, site: jejunum, lesion: adenocarcinoma + mucinous cystadenocarcinoma, dosed 96 weeks
  TD50: 1180 mg/kg/day
females, site: liver, lesion: hepatocellular adenoma + hepatocellular carcinoma + neoplastic nodule, dosed 96 weeks
  TD50: 394 mg/kg/day
females, site: liver, lesion: hepatocellular carcinoma + neoplastic nodule, dosed 96 weeks
  TD50: 394 mg/kg/day
females, site: liver, lesion: neoplastic nodule, dosed 96 weeks
  TD50: 429 mg/kg/day
females, site: multiple organs, lesion: mononuclear-cell leukemia, dosed 96 weeks
  TD50: 50 mg/kg/day
females, site: palate + tongue, lesion: squamous-cell carcinoma + squamous-cell papilloma, dosed 96 weeks
  TD50: 81 mg/kg/day
females, site: palate + tongue, lesion: squamous-cell carcinoma, dosed 96 weeks
  TD50: 208 mg/kg/day
females, site: palate + tongue, lesion: squamous-cell papilloma, dosed 96 weeks
  TD50: 132 mg/kg/day
females, site: palate, lesion: squamous-cell carcinoma, dosed 96 weeks
  TD50: 456 mg/kg/day
females, site: palate, lesion: squamous-cell papilloma, dosed 96 weeks
  TD50: 157 mg/kg/day
females, site: skin, lesion: squamous-cell carcinoma + squamous-cell papilloma, dosed 96 weeks
  TD50: 158 mg/kg/day
females, site: skin, lesion: squamous-cell papilloma, dosed 96 weeks
  TD50: 174 mg/kg/day
females, site: tongue, lesion: squamous-cell carcinoma + squamous-cell papilloma, dosed 96 weeks
  TD50: 238 mg/kg/day
females, site: tongue, lesion: squamous-cell carcinoma, dosed 96 weeks
  TD50: 384 mg/kg/day
females, site: uterus, lesion: adenocarcinoma + adenoma, dosed 96 weeks
  TD50: 493 mg/kg/day
females, site: uterus, lesion: endometrial stromal polyp + endometrial stromal sarcoma, dosed 96 weeks
  TD50: 122 mg/kg/day
females, site: uterus, lesion: endometrial stromal polyp, dosed 96 weeks
  TD50: 132 mg/kg/day
males, site: Zymbal's gland, lesion: adenoma + carcinoma, dosed 97 weeks
  TD50: 89.2 mg/kg/day
males, site: Zymbal's gland, lesion: adenoma, dosed 97 weeks
  TD50: 237 mg/kg/day
males, site: Zymbal's gland, lesion: carcinoma, dosed 97 weeks
  TD50: 132 mg/kg/day
males, site: adrenal medulla, lesion: pheochromocytoma benign, bilateral + pheochromocytoma, benign, dosed 97 weeks
  TD50: 39.8 mg/kg/day
males, site: adrenal medulla, lesion: pheochromocytoma benign, bilateral + pheochromocytoma, complex + pheochromocytoma, malignant + pheochromocytoma, benign, dosed 97 weeks
  TD50: 36.6 mg/kg/day
males, site: any site (literature study), lesion: several types, types named in the paper, dosed 97 weeks
  TD50: 12 mg/kg/day
males, site: brain, medulla + cerebrum, lesion: astrocytoma, malignant, dosed 97 weeks
  TD50: 600 mg/kg/day
males, site: colon, ascending + colon + colon, descending + jejunum + liver + palate + pharynx + preputial gland + skin + tongue + Zymbal's gland, lesion: adenomatous polyp + adenocarcinoma + mucinous cystadenocarcinoma + hepatocellular carcinoma + neoplastic nodule + squamous-cell pa, dosed 97 weeks
  TD50: 11.8 mg/kg/day
males, site: colon, ascending + colon + colon, descending, lesion: adenomatous polyp + adenocarcinoma, dosed 97 weeks
  TD50: 162 mg/kg/day
males, site: colon, ascending + colon + colon, descending, lesion: adenomatous polyp, dosed 97 weeks
  TD50: 310 mg/kg/day
males, site: colon, lesion: adenocarcinoma, dosed 97 weeks
  TD50: 355 mg/kg/day
males, site: jejunum, lesion: adenocarcinoma + adenomatous polyp + mucinous cystadenocarcinoma, dosed 97 weeks
  TD50: 1630 mg/kg/day
males, site: liver, lesion: hepatocellular adenoma + hepatocellular carcinoma + neoplastic nodule, dosed 97 weeks
  TD50: 55.2 mg/kg/day
males, site: liver, lesion: hepatocellular carcinoma + neoplastic nodule, dosed 97 weeks
  TD50: 55.2 mg/kg/day
males, site: liver, lesion: hepatocellular carcinoma, dosed 97 weeks
  TD50: 375 mg/kg/day
males, site: liver, lesion: neoplastic nodule, dosed 97 weeks
  TD50: 65.3 mg/kg/day
males, site: multiple organs, lesion: mononuclear-cell leukemia, dosed 97 weeks
  TD50: 23 mg/kg/day
males, site: palate + pharynx + tongue, lesion: squamous-cell papilloma + squamous-cell carcinoma, dosed 97 weeks
  TD50: 39.3 mg/kg/day
males, site: palate + tongue, lesion: squamous-cell papilloma, dosed 97 weeks
  TD50: 43.6 mg/kg/day
males, site: palate, lesion: squamous-cell papilloma, dosed 97 weeks
  TD50: 47 mg/kg/day
males, site: pharynx + tongue, lesion: squamous-cell carcinoma, dosed 97 weeks
  TD50: 361 mg/kg/day
males, site: pharynx, lesion: squamous-cell carcinoma, dosed 97 weeks
  TD50: 466 mg/kg/day
males, site: preputial gland, lesion: adenoma + adenoma, bilateral + carcinoma + carcinoma, bilateral, dosed 97 weeks
  TD50: 55.3 mg/kg/day
males, site: preputial gland, lesion: adenoma + adenoma, bilateral, dosed 97 weeks
  TD50: 77.1 mg/kg/day
males, site: preputial gland, lesion: carcinoma + carcinoma, bilateral, dosed 97 weeks
  TD50: 207 mg/kg/day
males, site: skin, lesion: basal-cell adenoma + basal-cell carcinoma + sebaceous adenoma, dosed 97 weeks
  TD50: 18.1 mg/kg/day
males, site: skin, lesion: basal-cell adenoma + basal-cell carcinoma, dosed 97 weeks
  TD50: 19.6 mg/kg/day
males, site: skin, lesion: basal-cell adenoma, dosed 97 weeks
  TD50: 21.6 mg/kg/day
males, site: skin, lesion: basal-cell carcinoma, dosed 97 weeks
  TD50: 101 mg/kg/day
males, site: skin, lesion: keratoacanthoma, dosed 97 weeks
  TD50: 152 mg/kg/day
males, site: skin, lesion: sebaceous adenoma, dosed 97 weeks
  TD50: 108 mg/kg/day
males, site: skin, lesion: squamous-cell carcinoma + squamous-cell papilloma, dosed 97 weeks
  TD50: 51 mg/kg/day
males, site: skin, lesion: squamous-cell carcinoma, dosed 97 weeks
  TD50: 89.7 mg/kg/day
males, site: skin, lesion: squamous-cell papilloma, dosed 97 weeks
  TD50: 92.8 mg/kg/day
males, site: subcutaneous tissue, lesion: fibroma + sarcoma, dosed 97 weeks
  TD50: 131 mg/kg/day
males, site: subcutaneous tissue, lesion: fibroma, dosed 97 weeks
  TD50: 150 mg/kg/day
males, site: testis, lesion: interstitial-cell adenoma, bilateral + interstitial-cell adenoma, dosed 97 weeks
  TD50: 12.9 mg/kg/day
males, site: thyroid gland, lesion: c-cell adenoma + c-cell adenoma, bilateral, dosed 97 weeks
  TD50: 143 mg/kg/day
males, site: thyroid gland, lesion: c-cell adenoma + c-cell carcinoma, bilateral + c-cell carcinoma + c-cell adenoma, bilateral, dosed 97 weeks
  TD50: 116 mg/kg/day
males, site: thyroid gland, lesion: follicular-cell adenoma + follicular-cell carcinoma, dosed 97 weeks
  TD50: 103 mg/kg/day
males, site: thyroid gland, lesion: follicular-cell adenoma, dosed 97 weeks
  TD50: 49.7 mg/kg/day
males, site: thyroid gland, lesion: follicular-cell carcinoma, dosed 97 weeks
  TD50: 331 mg/kg/day
males, site: tongue, lesion: squamous-cell carcinoma + squamous-cell papilloma, dosed 97 weeks
  TD50: 371 mg/kg/day
